{"source": "patent US20230133209A1", "about": "“CELL CLASSIFIER CIRCUITS AND METHODS OF USE THEREOF” (Eidgenössische Technische Hochschule Zürich, priority 2020, published 2023)", "test_system": "HepG2-LC tumor-bearing mice", "assay": "Antitumor efficacy in orthotopic HepG2 xenograft tumor model (bioluminescence tumor load, score sheet)", "type": "in vivo, mouse", "description": "Accordingly, this tumor-targeting program was evaluated in a pilot experiment in the context of orthotopic xenograft tumor model employing HepG2 cells in NSG mice. For the purpose of tumor establishment and tracking, HepG2 cells were stably modified with a lentiviral vector encoding an mCitrine fluorescent protein and firefly luciferase gene, and sorted for homogenous mCitrine expression. The tumors were established by splenic injection of 1M HepG2-LC cells and subsequent spleen dissection.\nTo gauge antitumor efficacy in vivo, AAV-DJ-HCC.V1-HSV-TK was delivered to HepG2 tumor bearing mice in two consecutive injections, three days apart. The four experimental groups (n=2 in this pilot) included the AAV-DJ-HCC.V1-HSV-TK in combination with GCV regimen (treatment arm), the same vector alone without GCV, sham injection supplemented with GCV regimen, and a sham PBS injection and no GCV.\nNext, DJ-pseudotyped AAV vectors harboring the circuit were delivered systemically to HepG2-LC tumor-bearing mice (FIG. 7A). […]\nXenograft mouse liver mouse model: All animal procedures were performed in accordance with the Swiss federal law and institutional guidelines of Eidgenössische Technische Hochschule (ETH) Zurich, and approved by the animal ethics committee of canton Basel-Stadt. […] The tumor growth in mice was monitored by bioluminescence imaging 2-3 times per week (PhotonIMAGER RT, Biospace Lab). […]", "data": [{"smiles": "Nc1nc(O)c2ncn(COC(CO)CO)c2n1", "note": "[GCV, ganciclovir]", "values": [{"measurement": "tumor load over time (bioluminescence)", "setting": "n=4 per arm, sham injection + GCV", "result": "exponential tumor load increase over time"}, {"measurement": "antitumor activity (tumor load, bioluminescence)", "setting": "pilot, n=2, sham injection supplemented with GCV regimen", "result": "absent"}]}]}
